Measured values from ChEMBL document CHEMBL1150992, “Synthesis and preparation of an affinity chromatography column for the purification of cytosolic phospholipase A2” (Bioorg Med Chem Lett, 1995).

How the values were obtained:
[1] = Inhibitory activity against cPLA2 was assessed from arachidonic acid (AA) release in cell free assay; type: functional
[2] = Inhibitory activity against cPLA2 was assessed from arachidonic acid (AA) release in U937 cells; type: functional, cell-based; details: U-937

IC50 [1]: 1 µM
IC50 [2]: 1 µM
SMILES: CCCc1c(OCCCOc2ccc(C(CCCc3ccccc3)SCCC(=O)O)cc2)ccc(C(C)=O)c1O (configuration not stated)
